We go through six molecules from patent US20090111741A1, “METHOD FOR TREATING AND/OR […] SEEKING BEHAVIOR” (priority 2007, published 2009).

The nature of data set [1]: metabolic stability in rat plasma. It is filed as in vitro ADME. The conditions noted are these: read-out: Rat plasma t1/2. The text has this:
The metabolic stability of the peptides depends on the modifications to the peptides. […] As expected, peptides without N-terminal modification were rapidly metabolized (Table 2), presumably by aminopeptidases. […] Homogenization is likely to rupture cell membranes, releasing intracellular proteases that could metabolize these peptides, so that this system may not accurately reflect the metabolism that occurs in vivo. Endopeptidases capable of metabolizing Dyn A are also present on red blood cells, and can rapidly metabolize some Dyn A-(1-11) amide analogs, e.g. arodyn.

Data set [2] can be described thus: BBMEC permeability (in-vitro model of the blood-brain barrier). The conditions noted are these: for Papp: pH 7.4.
For data set [3] the following is noted: rat, brain homogenate, half life (t1/2) in rat brain homogenate.
The conditions of data set [4]: rat, blood.
Data set [5] concerns the target T1, kappa-opioid receptor (KOR) (Mus musculus, UniProt P33534).
T1 construct: from tissue; host or cells: living C57B1/6J mice (central and peripheral KOR)
The conditions noted are these: animal models, after a single dose; cited from earlier work.

Another data set deals with kappa-opioid receptor. The conditions noted are these: in vivo; cited from earlier work.
Another data set addresses KOR (Rattus norvegicus, UniProt P34975). As to the kind of experiment: antagonist activity (adenylyl cyclase assay). It is filed as cell-based.
Data set [6] can be described thus: observation of side effects in mice. The conditions noted are these: mouse, in vivo. The text has this:
The ability of zyklophin to cross the BBB allows for any type of systemic administration, such as subcutaneous administration. Accordingly, zyklophin can be administered in a manner other than, but including, intercerebroventricular administration. Moreover, the ability of zyklophin to cross the BBB allows for a myriad of formulation opportunities, where the formulation can be prepared for a suitable mode or route of administration. As a consequence of having high selectivity for KOR and BBB permeability, zyklophin is a favorable drug candidate and as a lead drug for derivatizations and analoging. […] The mice data is discussed in more detail herein and in the incorporated references.

The target in data set [7] is kappa-opioid receptor (KOR) (Rattus norvegicus, UniProt P34975). As to the kind of experiment: binding affinity (Ki) at KOR.
A further data set in a line: in vitro. The conditions noted are these: rat, brain homogenate, half life (t1/2) in rat brain homogenate.

By efflux ratio is commonly meant a quotient of directional permeabilities that is used to spot active efflux. One may read the Papp as the rate of passage across a membrane or cell layer, normalised by area and donor concentration. Low readings indicate slow passage, high ones fast passage. The Kb is the equilibrium dissociation constant of an antagonist, usually derived from a functional assay. High values mean a less potent antagonist, low ones a more potent antagonist. A word on the Ki: it is a dissociation constant, usually derived from enzyme kinetics or from competition with a known ligand. A lower Ki goes with a stronger hold on the target.

Structures are written as SMILES. Like-named read-outs stand apart in the source and are kept apart here. Square brackets hold non-standard residues; d marks the D form. Peptide text beside a SMILES is read from it.

T1 sequence (P33534 whole entry): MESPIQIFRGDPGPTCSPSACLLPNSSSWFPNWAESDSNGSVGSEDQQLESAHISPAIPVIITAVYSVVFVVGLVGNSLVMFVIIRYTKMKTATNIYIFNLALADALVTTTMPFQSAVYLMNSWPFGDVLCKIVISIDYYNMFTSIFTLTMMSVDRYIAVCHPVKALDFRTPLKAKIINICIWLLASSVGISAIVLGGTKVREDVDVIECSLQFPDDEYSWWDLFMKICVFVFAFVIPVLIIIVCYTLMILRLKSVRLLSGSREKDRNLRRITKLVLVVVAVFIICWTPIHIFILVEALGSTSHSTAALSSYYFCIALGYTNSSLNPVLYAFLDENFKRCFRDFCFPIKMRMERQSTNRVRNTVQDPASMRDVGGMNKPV
kappa-opioid receptor (KOR) (Rattus norvegicus, UniProt P34975), sequence (P34975 whole entry): as the sequence (P33534 whole entry) above, with D11E, S17A, S51P, A308V counted along it
KOR, sequence (P34975 whole entry): as the sequence (P33534 whole entry) above, with D11E, S17A, S51P, A308V counted along it

For the molecule `CC[C@H](C)[C@H](NC(=O)[C@H](CCCNC(=N)N)NC(=O)[C@H](CCCNC(=N)N)NC(=O)[C@H](CC(C)C)NC(=O)[C@H](Cc1ccccc1)NC(=O)CNC(=O)CNC(=O)[C@H](Cc1ccc(O)cc1)NC(C)=O)C(=O)N[C@@H](CCCNC(=N)N)C(=O)N1CCC[C@H]1C(=O)N[C@@H](CCCCN)C(N)=O` [Ac-Dyn A-(1-11)NH2], the half-life in [1] came out at 1.85 ± 0.283 h. Besides, in [2], the efflux ratio stood at 2.4 and the apparent permeability (Papp) was 7.1 ± 2.3 ×10⁻⁶ cm/s.

On to `CC(=O)N[C@@H](Cc1ccccc1)C(=O)N[C@@H](Cc1ccccc1)C(=O)N[C@@H](Cc1ccccc1)C(=O)N[C@@H](CCCNC(=N)N)C(=O)N[C@@H](CC(C)C)C(=O)N[C@@H](CCCNC(=N)N)C(=O)N[C@@H](CCCNC(=N)N)C(=O)N[C@H](C)C(=O)N[C@@H](CCCNC(=N)N)C(=O)N1CCC[C@H]1C(=O)N[C@@H](CCCCN)C(N)=O` [Arodyn, Ac[Phe^1,2,3,Arg^4,D-Ala^8]Dyn A-(1-11) amide] (Ac-FFFRLRR[dA]RPK-NH2), for which the half-life is 0.167 to 0.183 h in data set [3], less than 2 min in data set [4] and 1.73 ± 0.0667 h in data set [1]. Moreover, in [2], the efflux ratio worked out at 1.6. The Papp in [2] is 7.6 ± 3 ×10⁻⁶ cm/s.

For the molecule `CC[C@H](C)[C@H](NC(=O)[C@H](CCCN=C(N)N)NC(=O)[C@H](CCCN=C(N)N)NC(=O)[C@H](CC(C)C)NC(=O)[C@H](Cc1ccccc1)NC(=O)CNC(=O)CNC(=O)[C@@H](N)Cc1ccc(O)cc1)C(=O)N[C@@H](CCCN=C(N)N)C(=O)N1CCC[C@H]1C(=O)N[C@@H](CCCCN)C(N)=O` [Dyn A-(1-11)NH2, Dynorphin A-(1-11) amide], the half-life in data set [1] is less than 0.0333 h. Further, in [2], the efflux ratio came out at 0.9 and the Papp worked out at 3.8 ± 1.3 ×10⁻⁶ cm/s.

`CC(C)[C@@H](CN1CC[C@@](C)(c2cccc(O)c2)[C@@H](C)C1)NC(=O)[C@H]1Cc2ccc(O)cc2CN1` [JDTic, (3R)-7-hydroxy-N-{(1S)-1-{[(3R,4R)-4-(3-hydroxyphenyl)-3,4-dimethyl-1-piperidinyl]methyl}-2-methylpropyl}-1,2,3,4-tetrahydro-3-isoquinolinecarbox-amide]: the “duration of action of KOR antagonism (literature)” value in data set [5] is “prolonged duration of action”. For the same molecule, the “effect on stress-induced reinstatement of cocaine seeking (literature)” value in the data set with kappa-opioid receptor is listed as “suppress stress-induced reinstatement of cocaine self-administration”.

Regarding `Oc1ccc2c3c1O[C@H]1c4[nH]c5c(c4C[C@@]4(O)[C@@H](C2)N(CC2CC2)CC[C@]314)C[C@@]1(O)[C@H]2Cc3ccc(O)c4c3[C@@]1(CCN2CC1CC1)[C@H]5O4` [nor-binaltorphimine], the “duration of action of KOR antagonism (literature)” value in data set [5] was “prolonged duration of action”.

Regarding `N=C(N)NCCC[C@@H]1NC(=O)[C@H](CCCNC(=N)N)NC(=O)[C@H](NC(=O)[C@H](Cc2ccccc2)NC(=O)CNC(=O)CNC(=O)[C@H](Cc2ccc(O)cc2)NCc2ccccc2)CC(=O)NC[C@@H](C(=O)N[C@@H](CCCNC(=N)N)C(=O)N2CCC[C@H]2C(=O)N[C@@H](CCCCN)C(N)=O)NC1=O` [zyklophin, [N-benzylTyr^1,cyclo(D-Asp^5,Dap^8)]Dyn A-(1-11) amide], at KOR, the antagonist dissociation constant (Kb) came to 84 nM. Besides, the “side effects in mice” value in [6] is reported as “no unwanted side affects have been observed”. In data set [7], this molecule gave an inhibitory constant (Ki) of 30 ± 2 nM. Besides, in “in vitro”, the half-life worked out at 1.17 h.
